Reference: US20150057305A1, “PHARMACEUTICAL COMPOSITION” (SHANGHAI HOTMED SCIENCES CO., LTD., priority 2012, published 2015)

Assays:
[1] = dog, in vivo; cited from earlier work
Solubility in water = assay type: physicochemical
[2] = cited from earlier work
[3] = Distribution coefficient (n-octanol-water) shake flask method GB/T 21853-2008; assay type: physicochemical; settings: in water

| solubility in water (Solubility in water) | Lg Po/w [3] | SMILES | oral bioavailability [1] | stability in human plasma [2] |
| --- | --- | --- | --- | --- |
|  |  | CC[C@@]1(O)C(=O)OCc2c1cc1n(c2=O)Cc2cc3c([N+](=O)[O-])cccc3nc2-1 [Example 9-NC, 9-nitro-camptothecin] | less than 6% |  |
| almost insoluble in water | 7.31 | CC[C@@]1(OC(=O)OCC(C)C)C(=O)OCc2c1cc1n(c2=O)Cc2cc3c([N+](=O)[O-])cccc3nc2-1 [the compound of formula I] |  | good stability |
